{"source": "ChEMBL document CHEMBL2074099", "about": "“Divergent regulation of the class II P-glycoprotein gene in primary cultures of hepatocytes versus H35 hepatoma by glucocorticoids” (Cell Growth Differ, 1995)", "key": {"[1]": {"target": "T1, ATP-dependent translocase ABCB1 (Rattus norvegicus, UniProt P43245)", "T1 sequence (P43245 whole entry)": "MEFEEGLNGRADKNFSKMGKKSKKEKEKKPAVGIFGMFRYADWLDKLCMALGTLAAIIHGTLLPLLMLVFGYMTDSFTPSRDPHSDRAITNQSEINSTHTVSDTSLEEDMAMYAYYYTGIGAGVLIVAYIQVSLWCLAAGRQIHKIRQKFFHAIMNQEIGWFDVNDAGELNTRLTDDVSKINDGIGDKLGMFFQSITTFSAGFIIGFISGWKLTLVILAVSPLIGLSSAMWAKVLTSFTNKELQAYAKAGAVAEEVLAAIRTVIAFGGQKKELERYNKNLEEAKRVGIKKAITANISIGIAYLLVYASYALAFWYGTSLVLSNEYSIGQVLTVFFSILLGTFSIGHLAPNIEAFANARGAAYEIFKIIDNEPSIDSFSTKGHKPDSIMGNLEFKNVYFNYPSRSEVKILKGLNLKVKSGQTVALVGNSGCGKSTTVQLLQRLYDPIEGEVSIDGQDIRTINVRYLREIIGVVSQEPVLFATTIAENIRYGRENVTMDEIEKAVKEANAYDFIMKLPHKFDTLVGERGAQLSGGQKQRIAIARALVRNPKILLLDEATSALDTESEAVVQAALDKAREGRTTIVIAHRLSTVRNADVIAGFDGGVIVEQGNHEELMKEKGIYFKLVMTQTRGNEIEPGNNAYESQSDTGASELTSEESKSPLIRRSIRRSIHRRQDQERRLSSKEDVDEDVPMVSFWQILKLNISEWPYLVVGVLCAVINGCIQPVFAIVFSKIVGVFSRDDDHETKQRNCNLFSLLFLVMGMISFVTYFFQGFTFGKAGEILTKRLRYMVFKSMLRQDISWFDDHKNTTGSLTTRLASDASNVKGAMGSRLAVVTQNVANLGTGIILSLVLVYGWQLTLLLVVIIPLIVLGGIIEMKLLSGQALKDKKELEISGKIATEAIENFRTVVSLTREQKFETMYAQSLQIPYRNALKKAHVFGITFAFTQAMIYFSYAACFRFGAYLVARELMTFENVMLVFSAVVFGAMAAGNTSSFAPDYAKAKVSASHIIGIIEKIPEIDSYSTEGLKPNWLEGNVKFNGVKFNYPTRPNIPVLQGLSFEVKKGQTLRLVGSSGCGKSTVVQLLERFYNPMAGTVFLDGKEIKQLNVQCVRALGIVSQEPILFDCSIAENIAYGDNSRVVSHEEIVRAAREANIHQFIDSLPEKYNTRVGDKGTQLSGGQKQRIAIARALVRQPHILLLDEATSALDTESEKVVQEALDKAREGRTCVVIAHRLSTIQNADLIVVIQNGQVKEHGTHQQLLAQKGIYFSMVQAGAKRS", "assay": "TP_TRANSPORTER: Western blot, primary hepatocytes", "assay_type": "functional, cell-based, Hepatocyte"}, "[2]": {"target": "T1, ATP-dependent translocase ABCB1", "assay": "TP_TRANSPORTER: Northern blot from primary hepatocytes", "assay_type": "functional, cell-based, Hepatocyte"}}}
{"smiles": "C[C@@H]1C[C@H]2[C@@H]3CCC4=CC(=O)C=C[C@]4(C)[C@@]3(F)[C@@H](O)C[C@]2(C)[C@@]1(O)C(=O)CO", "note": "[DEXAMETHASONE]", "values": [{"measurement": "Activity", "setting": "[1]", "result": "inducer [Decrease]"}, {"measurement": "Activity", "setting": "[2]", "result": "inducer [Decrease]"}]}
